Key:
[1] = tested on: wild strain adult F. hepatica; assay: Ex vivo motility assay on adult liver flukes (wild strain); format: cell-based, Fasciola hepatica; conditions: 40 µM; for Effect on wild strain adult fluke motility, in words: 72 h; for Average motility of 4 parasites with 95% CI at 72 hour time point: wild strain adult flukes, score 1 good/normal to 6 no movement or dead
Experimental: Due to the high number of active molecules and a shortage of Italian strain adult liver flukes, the eleven hit compounds were screened for 72 h at 40 µM (in 0.4% DMSO) on wild strain adult F. hepatica (n = 4/condition) of unknown provenance (Table S3). The protocol for culturing and scoring (motility) the activity of these compounds was previously described (1—good/normal; 2—moderate; 3—resting (less than 10 s pulses of body and head), 4—apathetic (less than 2 s pulses of body and head), 5—paralysis and 6–no movement or dead worms). Six compounds were deemed active in these assays and were selected for further screening.

[2] = tested on: F. hepatica newly excysted juveniles (NEJs), Italian strain; assay: Ex vivo screen against newly excysted juveniles (NEJs), phenotype and motility scoring; format: cell-based, Fasciola hepatica; conditions: 10 µM; for Average motility of 25 NEJs with 95% CI, 24 hours / Average motility of 25 NEJs with 95% CI, 48 hours / Average motility of 25 NEJs with 95% CI, 72 hours: motility score 1 good/normal to 5 no movement; for Average phenotype of 25 NEJs with 95% CI, 24 hours / Average phenotype of 25 NEJs with 95% CI, 48 hours / Average phenotype of 25 NEJs with 95% CI, 72 hours: ultrastructure score 1 normal to 6 dead or dissolved; for Activity against NEJs (first screen), in words: 72 h co-culture
Experimental: […] The NEJs were excysted from metacercariae and assayed at 10 μM (in 0.1% DMSO) final concentration alongside negative (0.1% DMSO) and positive (10 μM TCBZ, in 0.1% DMSO) controls as previously described. The MC and IVL compound series were screened separately.
The motility (1—good/normal; 2—moderate; 3—low; 4—very little; 5—no movement) and phenotypic (ultrastructural changes) scores were noted according to a previously described scoring matrix (Figure S1 and Table S2).

| Compound | Effect on wild strain adult fluke motility, in words [1] | Average motility of 4 parasites with 95% CI at 72 hour time point [1] | Average motility of 25 NEJs with 95% CI, 24 hours [2] | Average phenotype of 25 NEJs with 95% CI, 24 hours [2] | Average motility of 25 NEJs with 95% CI, 48 hours [2] | Average phenotype of 25 NEJs with 95% CI, 48 hours [2] | Average motility of 25 NEJs with 95% CI, 72 hours [2] | Average phenotype of 25 NEJs with 95% CI, 72 hours [2] | Activity against NEJs (first screen), in words [2] |
| --- | --- | --- | --- | --- | --- | --- | --- | --- | --- |
| CC1(C)CC[C@]2(NC(=O)N3CCCC3)CC[C@]3(C)C(=CCC4[C@@]5(C)CCC6OC(C)(C)OC[C@@]6(C)C5CC[C@]43C)C2C1 (stereo partly drawn) [MC023, N-((4aR,6aR,6bS,8aS,14bR)-2,2,4a,6a,6b,11,11,14b-Octamethyl-4a,5,6,6a,6b,7,8,9,10,11,12,12a,14,14a, 14b,15,16,16a-octadecahydro-4H-piceno[3,4-d][1,3]dioxin-8a(4bH)-yl)-pyrolidine-1-carboxamide] | less severe motility defects | 4.75 (3.5;5.9) | 5.00 (5.0;5.0) | 5.00 (5.0;5.0) | 5.00 (5.0;5.0) | 5.00 (5.0;5.0) | 5.00 (5.0;5.0) | 5.00 (5.0;5.0) | maximal alterations to both phenotype/ultrastructure and motility |
| CC1(C)CC[C@]2(NC(N)=O)CC[C@]3(C)C(=CCC4[C@@]5(C)CCC6OC(C)(C)OC[C@@]6(C)C5CC[C@]43C)C2C1 (stereo partly drawn) [MC024, 1-((4aR,6aR,6bS,8aS,14bR)-2,2,4a,6a,6b,11,11,14b-Octamethyl-4a,5,6,6a,6b,7,8,9,10,11, 12, 12a,14,14a, 14b,15,16,16a-octadecahydro-4H-piceno[3,4-d][1,3]dioxin-8a(4bH)-yl)urea] | less severe motility defects | 4.25 (3.2;5.7) | 5.00 (5.0;5.0) | 5.00 (5.0;5.0) | 5.00 (5.0;5.0) | 5.00 (5.0;5.0) | 5.00 (5.0;5.0) | 5.00 (5.0;5.0) | maximal alterations to both phenotype/ultrastructure and motility |
| COC(=O)[C@H](Cc1c[nH]cn1)NC(=O)N[C@]12CCC(C)(C)CC1C1=CCC3[C@@]4(C)CC[C@@H]5OC(C)(C)OC[C@@]5(C)C4CC[C@@]3(C)[C@]1(C)CC2 (stereo partly drawn) [MC048, Methyl (((4aR,6aR,6bS,8aS,14bR,16aS)-2,2,4a,6a,6b,11,11,14b-octamethyl-4a,5,6,6a,6b,7,8,9,10,11,12, 12a,14,14a,14b,15,16,16a-octadecahydro-4H-piceno[3,4-d][1,3]dioxin-8a(4bH)-yl)carbamoyl)-L-histidinate] |  |  | 1.40 (1.2;1.5) | 1.44 (1.2;1.6) |  |  | 1.96 (1.8;2) | 1.88 (1.7;2) |  |
| CN(C[C@H](O)[C@@H](O)[C@H](O)[C@H](O)CO)C(=O)N[C@]12CCC(C)(C)CC1C1=CCC3[C@@]4(C)CC[C@@H]5OC(C)(C)OC[C@@]5(C)C4CC[C@@]3(C)[C@]1(C)CC2 (stereo partly drawn) [MC059, 1-Methyl-3-((4aR,6aR,6bS,8aS,14bR,16aS)-2,2,4a,6a,6b,11,11,14b-octamethyl-4a,5,6,6a, 6b,7,8,9,10,11, 12,12a,14,14a,14b,15,16,16a-octadecahydro-4H-piceno[3,4-d][1,3]dioxin-8a(4bH)-yl)-1-((2S,3R,4R,5R)-2,3,4,5,6-pentahydroxyhexyl)urea] |  |  | 2.84 (2.3;3.3) | 2.68 (1.9;3.3) | 3.20 (2.7;3.6) | 3.04 (2.3;3.7) | 3.20 (2.6;3.7) | 3.88 (3.2;4.4) | none reached the level required |

From paper PMC10385850, “Modified Hederagenin Derivatives Demonstrate Ex Vivo Anthelmintic Activity against Fasciola hepatica” (Pharmaceutics, 2023)
